Patent US20030162834A1, “Natural physiologically active material effective on fish diseases and fish food containing the material” (priority 1998, published 2003)

Experiments:
Edwardsiella tarda = experiment: Trial 11: turbidimetric antibacterial assay; assay type: cell-based; conditions: 500 ppm in BHI liquid culture medium, 13 hours, 23 degrees centigrade
Procedure: (§1) The turbidimetric analysis was employed. Fatty acids of C2, C4, C6-C10 were each dissolved in 2 ml of BHI liquid culture medium at 500 ppm concentration. A number 1×10^5 of typical bacteria (Vibrio anguillarum, Edwardsiella tarda and Enterococcus seriolicida) causing the fish bacterial diseases were inoculated in each adjusted culture medium, followed by cultivation for 13 hours at 23 degrees centigrade. After the cultivation, turbidity of the culture medium was measured at 600 nm to determine the amount of multiplied bacteria. The trial was conducted two times. Results are shown in FIG. 19 (Vibrio anguillarum), FIG. 20 (Edwardsiella tarda), and FIG. 21 (Enterococcus seriolicida).

Enterococcus seriolicida = experiment: Trial 11: turbidimetric antibacterial assay; assay type: cell-based; conditions: 500 ppm in BHI liquid culture medium, 13 hours, 23 degrees centigrade
Procedure: as §1

Vibrio anguillarum = experiment: Trial 11: turbidimetric antibacterial assay; assay type: cell-based; conditions: 500 ppm in BHI liquid culture medium, 13 hours, 23 degrees centigrade
Procedure: as §1

[1] = test system: parasites (Heterobothrium okamotoi, Cryptocaryon irritans); experiment: Trial 1: overall statements on efficacy of fatty acids against parasites; assay type: cell-based; conditions: Trial 1 summary; C12 at a low concentration, not the same condition
Procedure: Fatty acids having carbon number C2, C4 and C6-C10 were each dissolved in seawater at 1 mM concentration, and oncomiracidia of Heterobothrium okamotoi and larvae attaching to the gill were immersed in the seawater solutions. After 2 hours from the start of immersion, the efficacy of the fatty acids was investigated by counting the number of dead oncomiracidia and the number of larvae dropping down from the gill. More than 30 individuals of parasites were transferred to each group.
For Cryptocaryon irritans, fatty acids having carbon number C2, C4 and C6-C10 were each dissolved in seawater at 0.5 mM concentration, and theronts of Cryptocaryon irritans were immersed in the seawater solutions. After 1 hour from the start of immersion, the efficacy of the fatty acids was investigated by counting the number of dead theronts. More than 200 individuals of parasites were transferred to each group.
For any of the groups, the trial was made under condition of 20 degrees centigrade.

fish bacteria = experiment: Trial 11: overall statement on C12 against fish bacteria; assay type: cell-based; conditions: low concentration, not the same condition as 500 ppm
Procedure: The turbidimetric analysis was employed. […] A number 1×10^5 of typical bacteria (Vibrio anguillarum, Edwardsiella tarda and Enterococcus seriolicida) causing the fish bacterial diseases were inoculated in each adjusted culture medium, followed by cultivation for 13 hours at 23 degrees centigrade. After the cultivation, turbidity of the culture medium was measured at 600 nm to determine the amount of multiplied bacteria. The trial was conducted two times. Results are shown in FIG. 19 (Vibrio anguillarum), FIG. 20 (Edwardsiella tarda), and FIG. 21 (Enterococcus seriolicida).

Solubility = assay type: physicochemical
[2] = test system: Vibrio sp. infection and gliding bacterium infection; experiment: Trial 12: bleeding trial on spotted plaice with occurred bacterial disease; assay type: in vivo
Text: Spotted plaice weighing approximately 60 g in average was employed in this trial. Each 270 pieces of spotted plaice were put in off-shore net pens of 4×4×2.5 m, and bled for 100 days. […] The number of dead fish and the fish situations were observed. The fish were fed twice per day, i.e., in the morning and evening. The water temperature during the trial period was in the range of 14-17 degrees centigrade.

Heterobothrium okamotoi = conditions: drug bath about one hour, about 800 ppm formalin; cited from earlier work
Cryptocaryon irritans [3] = experiment: Trial 8: octanoic acid versus its monoglyceride and triglyceride, oral, red sea bream; assay type: in vivo; conditions: diet amount equal to 17.5 mM octanoic acid residues (2.5 g acid, 3.8 g monoglyceride, 2.7 g triglyceride per kg)
Text: Fish tested: Red sea bream weighing approximately 15.8 g in average.
Trial groups: Four groups, i.e., an octanoic-acid added group in which fish were fed diets added with octanoic acid, a monoglyceride added group in which fish were fed diets added with monoglyceride of octanoic acid, a triglyceride added group in which fish were fed diets added with triglyceride of octanoic acid, and a control group in which fish were fed diets added with neither octanoic acid nor glycerides. The feeding rate was 3% of fish weight/day for each group.
Trial diets: The diets added with octanoic acid were prepared by spraying 2.5 g (17.5 mM with respect to the diet weight) of octanoic acid to 1 kg of commercially available pellets for red sea bream. […]. Specifically, the diets added with monoglyceride and triglyceride were prepared respectively by spraying 3.8 g of monoglyceride and 2.7 g of triglyceride to 1 kg of the commercially available pellets for red sea bream. The control group fish were fed the commercially available pellets for red sea bream.
Challenge trial: Each 10 pieces of fish from among a shoal of fish, in which no diseases such as Cryptocaryon irritans infection were found, were put in a 100-liter water tank, and were fed the respective trial diets. After 5 days, approximately 2000 individuals of theronts of Cryptocaryon irritans were put into each water tank to infect the fish while water flow was stopped for 1 hour. Then, bleeding was continued for 31 days while feeding the respective trial diets. During the trial period, the water temperature was 24+−1 degrees centigrade and the water was exchanged at 20 cycles/day.
Evaluation was made by sampling 5 pieces of fish from each group after 18 and 31 days from the start of the challenge, and comparing the number of the parasites attaching to the gill of each fish.

Cryptocaryon irritans [4] = experiment: In vitro assay of glycerides of octanoic acid against Cryptocaryon irritans; assay type: cell-based
[5] = diets containing 0.5% decanoic acid fed from the 64-th day

SMILES: CCCCCCCCC(=O)O [C9, pelargonic acid]
- antibacterial activity (turbidity at 600 nm) (Edwardsiella tarda): showed an antibacterial activity
- antibacterial activity (turbidity at 600 nm) (Enterococcus seriolicida): showed an antibacterial activity
- antibacterial activity (turbidity at 600 nm) (Vibrio anguillarum): showed an antibacterial activity

SMILES: CCCCCCCCCCCC(=O)O [C12, lauric acid]
- efficacy against parasites [1]: a similar activity was found even at a low concentration
- antibacterial activity (fish bacteria): a similar activity was found even at a low concentration
- solubility in seawater (Solubility; Trial 1 conditions (1 mM / 0.5 mM)): so low in solubility that the trial could not be made under the same condition
- solubility in BHI liquid culture medium (Solubility; Trial 11 conditions (500 ppm)): so low in solubility that the trial could not be made under the same condition

SMILES: CN(C)[C@@H]1C(O)=C(C(N)=O)C(=O)[C@@]2(O)C(O)=C3C(=O)c4c(O)cccc4[C@@](C)(O)[C@H]3[C@H](O)[C@@H]12 [OTC, exytetracycline, reference compound]
- number of dead fish after application ([2]; OTC in diet 6 days (22-th to 27-th day), 0.5 g of 10% OTC/kg of fish weight): reduced
- complete remedy of the Vibrio sp. infection ([2]; OTC in diet 6 days, 0.5 g of 10% OTC/kg of fish weight): not confirmed

SMILES: CCCCCCCCCC(=O)O [decanoic acid]
- antibacterial activity (turbidity at 600 nm) (Edwardsiella tarda): showed an antibacterial activity
- antibacterial activity (turbidity at 600 nm) (Enterococcus seriolicida): showed an antibacterial activity
- antibacterial activity (turbidity at 600 nm) (Vibrio anguillarum): showed an antibacterial activity
- dead fish after the 72-th day from the start of the trial [2, 5]: no dead fish were found
- fish suffering abrasion and bleeding due to the infections [2, 5]: not found
- number of dead fish after feeding [2, 5]: apparently reduced

SMILES: C=O [formalin]
- effect on adult parasites (Heterobothrium okamotoi): cannot destroy adult parasites at all
- larvae destroyed (Heterobothrium okamotoi): ≤ 80%

SMILES: CCCCCCCC(=O)OCC(O)CO (stereo not drawn) [monoglyceride of octanoic acid]
- number of parasites attaching to the gill after 18 and 31 days, versus control (Cryptocaryon irritans [3]): apparently fewer
- antibacterial activity against Cryptocaryon irritans (Cryptocaryon irritans [4]): an antibacterial activity though at a lower level than octanoic acid

SMILES: CCCCCCCC(=O)OCC(COC(=O)CCCCCCC)OC(=O)CCCCCCC [triglyceride of octanoic acid]
- number of parasites attaching to the gill after 18 and 31 days, versus control (Cryptocaryon irritans [3]): apparently fewer
- antibacterial activity against Cryptocaryon irritans (Cryptocaryon irritans [4]): no antibacterial activity
